Source: ChEMBL document CHEMBL3872232, “2-Azetidinones: Synthesis and biological evaluation as potential anti-breast cancer agents” (Eur J Med Chem, 2016)

How the values were obtained:
[1] = Antiproliferative activity against human MCF7 cells after 48 hrs by MTT assay; format: functional, cell-based; details: MCF7, 48 h
[2] = Antiproliferative activity against human MDA-MB-231 cells after 48 hrs by MTT assay; format: functional, cell-based; details: MDA-MB-231, 48 h
[3] = Antiproliferative activity against human mammary epithelial cells after 48 hrs by MTT assay; format: cell-based, Epithelial cell
[4] = Homo sapiens, Epithelial cell, 48 h, read-out: IC50

CO[C@@H]1C(=O)N(C/C(C#N)=C/c2ccccc2)[C@@H]1c1ccc(Cl)cc1
IC50 [1]: 19.8 µM | IC50 [2]: 18 µM | IC50 ([3]; epithelial cell): Non-Toxic

CO[C@@H]1C(=O)N(C/C(C#N)=C/c2ccccc2)[C@@H]1c1ccc(Br)cc1
IC50 ([3]; epithelial cell): Non-Toxic

CCOC(=O)/C(=C/c1ccccc1)CN1C(=O)[C@@H](OC)[C@H]1c1ccc(Cl)cc1
IC50 [1]: 12.7 µM | IC50 [2]: 11.1 µM | IC50 ([3]; epithelial cell): Non-Toxic

CO[C@@H]1C(=O)N(C/C(C#N)=C/c2ccccc2)[C@@H]1c1cccc(C)c1
IC50 [1]: 11.3 µM | IC50 [2]: 11.1 µM | IC50 ([3]; epithelial cell): Non-Toxic

COC(=O)/C(=C/c1ccccc1)CN1C(=O)[C@@H](OC)[C@H]1c1ccc(F)cc1
IC50 [1]: 15.6 µM | IC50 [2]: 21.8 µM | IC50 [3, 4]: 27.9 µM

COC(=O)/C(=C/c1ccccc1)CN1C(=O)[C@@H](OC)[C@H]1c1cccc(F)c1
IC50 [1]: 13.7 µM | IC50 [2]: 34.4 µM | IC50 [3, 4]: 38.5 µM

CO[C@@H]1C(=O)N(C/C(C#N)=C/c2ccccc2)[C@@H]1c1cccc2ccccc12
IC50 [1]: 11.7 µM | IC50 ([3]; epithelial cell): Non-Toxic

COc1ccc(OC)c([C@@H]2[C@H](OC)C(=O)N2C/C(C#N)=C/c2ccccc2)c1
IC50 [2]: 23.4 µM | IC50 [3, 4]: > 100 µM

CO[C@@H]1C(=O)N(C/C(C#N)=C/c2ccccc2)[C@@H]1c1ccc2c(c1)OCO2
IC50 [1]: 10.6 µM | IC50 [3, 4]: > 100 µM

COC(=O)/C(=C/c1ccccc1)CN1C(=O)[C@@H](OC)[C@H]1c1ccc(Cl)cc1Cl
IC50 [2]: 19 µM | IC50 [3, 4]: 70 µM

COC(=O)/C(=C/c1ccccc1)CN1C(=O)[C@@H](OC)[C@H]1c1ccc(OC)cc1
IC50 [1]: 11.6 µM | IC50 [2]: 14 µM | IC50 ([3]; epithelial cell): Non-Toxic

COC(=O)/C(=C/c1ccccc1)CN1C(=O)[C@@H](OC)[C@H]1c1cccc(C(F)(F)F)c1
IC50 [2]: 18.2 µM | IC50 [3, 4]: 71.8 µM

COC(=O)/C(=C/c1ccccc1)CN1C(=O)[C@@H](OC)[C@H]1c1ccccc1C(F)(F)F
IC50 [2]: 17.6 µM | IC50 ([3]; epithelial cell): Non-Toxic

COC(=O)/C(=C/c1ccccc1)CN1C(=O)[C@@H](OC)[C@H]1c1cccc(Cl)c1
IC50 [1]: 25.1 µM | IC50 ([3]; epithelial cell): Non-Toxic

COC(=O)/C(=C/c1ccccc1)CN1C(=O)[C@@H](OC)[C@H]1c1ccc(Cl)cc1
IC50 [1]: 15.2 µM | IC50 [2]: 15.6 µM | IC50 [3, 4]: 37.9 µM

COC(=O)/C(=C/c1ccccc1)CN1C(=O)[C@@H](OC)[C@H]1c1ccccc1
IC50 [1]: 12.9 µM | IC50 [2]: 11.1 µM | IC50 ([3]; epithelial cell): Non-Toxic

CO[C@@H]1C(=O)N(C/C(C#N)=C/c2ccccc2)[C@@H]1c1ccccc1Br
IC50 [1]: 10.8 µM | IC50 [2]: 10.7 µM | IC50 ([3]; epithelial cell): Non-Toxic

COC(=O)/C(=C/c1ccccc1)CN1C(=O)[C@@H](OC)[C@H]1c1cccc([N+](=O)[O-])c1
IC50 [1]: 15 µM | IC50 [2]: 14.4 µM | IC50 ([3]; epithelial cell): Non-Toxic

CCOC(=O)/C(=C/c1ccccc1)CN1C(=O)[C@@H](OC)[C@H]1c1cccc([N+](=O)[O-])c1
IC50 [1]: 19.9 µM | IC50 [2]: 14.4 µM | IC50 ([3]; epithelial cell): Non-Toxic

CO[C@@H]1C(=O)N(C/C(C#N)=C/c2ccccc2)[C@@H]1c1ccc(Cl)cc1Cl
IC50 [1]: 31.9 µM | IC50 [2]: 17 µM | IC50 [3, 4]: > 100 µM

CCOC(=O)/C(=C/c1ccccc1)CN1C(=O)[C@@H](OC)[C@H]1c1ccc(F)cc1
IC50 [1]: 18.8 µM | IC50 [2]: 14 µM | IC50 ([3]; epithelial cell): Non-Toxic
